Molecules are shown by their SMILES. pEC50: −log10 of the molar value. A value given as a limit tells only on which side of the number the result lay.

The target in the experiment is T1, human thyroid receptor beta ligand-binding domain (LBD) (Homo sapiens, UniProt P10828).
T1 construct: purchased Invitrogen
T1 sequence (P10828 217-461 limits assumed): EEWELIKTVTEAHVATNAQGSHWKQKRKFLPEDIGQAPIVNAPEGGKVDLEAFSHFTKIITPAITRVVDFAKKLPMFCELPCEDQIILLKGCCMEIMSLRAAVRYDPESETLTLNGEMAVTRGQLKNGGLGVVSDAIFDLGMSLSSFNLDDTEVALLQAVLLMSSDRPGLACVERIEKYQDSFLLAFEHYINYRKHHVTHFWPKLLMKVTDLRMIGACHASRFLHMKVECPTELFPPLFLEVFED
The experiment is described as follows: THR Biochemical Assay (Assay 1): TR-FRET thyroid receptor beta coactivator assay. As to conditions: GST-tagged THR-beta LBD 1 nM, fluorescein SRC2-2 coactivator peptide 200 nM, 1 hr at rt, TR-FRET ratio 520:495; read-out: Assay 1 (EC50, THR-beta agonist activity). From the text: The TR-FRET thyroid receptor beta coactivator assay was used with slight, optimized modifications of the manufacturer's protocol (Invitrogen). The assay uses a terbium-labeled anti-GST antibody, a glutathione-S-transferase (GST) tagged human thyroid receptor, beta or alpha, ligand-binding domain (LBD), and a fluorescein labeled SRC2-2 coactivator peptide. The antibody interacts with the LBD, where the agonist also binds, resulting in increased affinity for the SRC2-2 coactivator peptide causing energy transfer […] the acceptor fluorophore and a FRET emission shift from 495 to 520 nm. The energy transfer was detected as an increase in the fluorescence emission of the fluorescein acceptor, and a decrease in the fluorescence emission of the terbium donor. The assay was performed in a 384-well black plate in a final volume of 20 μL. Serial dilution of various test agonists was performed in DMSO (1% final DMSO concentration) and added to the test plate. […] The TR-FRET was then measured on a Victor multilabel reader (Perkin Elmer) using an excitation wavelength of 340 nm with emission filters of 495 nm and 520 nm. The assay was quantified by expressing a ratio (520:495) of the intensities, and the resulting activation curves; EC50 values were generated using a sigmoidal dose response (variable slope) equation in GraphPad™ Prism 8.0.

As for `CC1CCc2c(Oc3c(Cl)cc(-n4nc(N)c(=O)[nH]c4=O)cc3Cl)n[nH]c(=O)c21` (single isomer, unassigned) [Compound 1b, 6-amino-2-(3,5-dichloro-4-((7-methyl-1-oxo-2,5,6,7-tetrahydro-1H-cyclopenta[d]pyridazin-4-yl)oxy)phenyl)-1,2,4-triazine-3,5(2H,4H)-dione], the negative logarithm of the EC50 (pEC50) is 6.60 to 7.30. The value for `CC1CCc2c(Oc3c(Cl)cc(-n4nc(N)c(=O)[nH]c4=O)cc3Cl)n[nH]c(=O)c21` (single isomer, unassigned) [Compound 1a, 6-amino-2-(3,5-dichloro-4-((7-methyl-1-oxo-2,5,6,7-tetrahydro-1H-cyclopenta[d]pyridazin-4-yl)oxy)phenyl)-1,2,4-triazine-3,5(2H,4H)-dione] was more than 7.30.

For the origin of these results see patent publication US11858913B2, “Bicyclic pyridazinones and methods of use thereof” (ALIGOS THERAPEUTICS, INC., priority 2020, dated 2024).
